Reference: US20230047208A1, “RNA Splicing Modulation” (The General Hospital Corporation, priority 2020, published 2023)

Legend:
[1] = system: CPSF7 minigene, Exon X; assay: CPSF7 minigene splicing assay, RT-PCR; assay type: cell-based; conditions: mutated CPSF7 minigene
Text: (§1) FIGS. 3E-3G Upper row: The length of the exon triplets cloned into minigenes constructs are shown. The flanking sequences of the 5′ splice sites of Exon X are shown in LOGO plots. The height of each nucleotide was estimated using in silico saturated mutagenesis, with the corresponding closely matched CNN Motifs indicated below the plots. […] Middle row: Splicing changes for Exon X in both wildtype and mutated exon triplets, predicted by the CNN model (left) and measured by RT-PCR of the minigene (right). The RT-PCR experiments were performed in duplicate and independently repeated three times for each minigene to make the bar plots (two-tailed, unpaired Student's t test). Bottom row: Example of splicing changes induced by treatment with Compound (I) in the minigene splicing assays. The percentage for Exon X inclusion is indicated beneath each lane, from treated and untreated conditions in both wildtype and mutated minigenes. […] The statistical significance, as shown in FIGS. 3E-3G, was determined via two-tailed, unpaired Student's test: *p<0.05; **p<0.01; ***p<0.001. […]
(§2) Wild-type and mutant double-stranded DNA (dsDNA) fragments, selected based on low nucleotide length and exon-skipping probability, were ordered through GENEWIZ (FragmentGENE). […] Concentrations were determined using a nanodrop spectrometer.

[2] = system: SETD5 minigene, Exon X; assay: SETD5 minigene splicing assay, RT-PCR; assay type: cell-based; conditions: mutated SETD5 minigene
Text: as §1, §2

[3] = system: CFTR c.2988G>A; assay: CFTR exon 18 inclusion, RT-PCR in Flp-In-293 stable cells expressing c.2988G>A CFTR-EMG-i14-i18; assay type: cell-based, human; conditions: Flp-In-293 c.2988G>A, 60 μM, 5 days
Procedure: HEK-293 cells stably transfected with the expression minigenes (EMGs) for the full-length coding sequence and flanking intron sequence of the Cystic Fibrosis Transmembrane Conductance Regulator (CFTR) (courtesy of Dr. Garry R. Cutting, Johns Hopkins University school of Medicine, Baltimore, Md.) were cultured in D-MEM supplemented with 10% FBS (FBS), 1% penicillin/streptomycin and 0.1 mg/mL Hygromycin (SIGMA).
After treatment, the cells were collected and RNA was extracted with QIAzol Lysis Reagent (79306, Qiagen) following the manufacturer's instructions. The yields of the total RNA for each sample were determined using a Nanodrop ND-1000 spectrophotometer. […]
Ratios between isoforms having the middle exon included or excluded were obtained using the integrated density value (IDV) for each correspondent band, and then assessed using Alpha 2000™ Image Analyzer and quantified by ImageJ software. The level of exon inclusion was calculated as previously described^4, where the relative density value of the band represents inclusion and is expressed as a percentage. Validation of the semi-quantitative RT-PCR method for the measurement of exon inclusion was performed using RT-qPCR^4. […]

Structure (SMILES): Clc1nc(NCc2ccncc2)c2cc[nH]c2n1 [Compound (I), 2-chloro-N-(pyridin-4-ylmethyl)-7H-pyrrolo[2,3-d]pyrimidin-4-amine]
- Exon X splicing response confirmed by RT-PCR [1]: inclusion
- Exon X splicing response confirmed by RT-PCR [2]: exclusion
- increase of CFTR exon 18 inclusion [3]: 10%
